For the data set the following is noted: Crystal; DTA.

Normal melting temperature data for one molecule are collected here from the NIST ThermoML archive (doi:10.1016/j.tca.2010.01.023).

SMILES strings stand for the structures. ± gives the expanded uncertainty stated by the source.

With `CCCCn1cc[n+](C)c1.[Cl-]` [1-butyl-3-methylimidazolium chloride], the Normal melting temperature came to 65.0 ± 1 °C.
